# What was measured:
# [1] = test system: Mast/stem cell growth factor receptor Kit (Homo sapiens), P10721 [A829P]; conditions: Compound concentration 1000.0 nM
# [2] = biological target: Muscarinic acetylcholine receptor M1 (Homo sapiens) (UniProt P11229); conditions: Compound concentration 10.0 uM
# [3] = biological target: Serine/threonine-protein kinase WNK3 (Homo sapiens) (UniProt Q9BYP7); conditions: Compound concentration 1000.0 nM
# D(1A) dopamine receptor = D(1A) dopamine receptor (Homo sapiens, UniProt P21728); conditions: Compound concentration 10.0 uM
# [4] = biological target: Phosphatidylinositol 3-kinase catalytic subunit type 3 (Homo sapiens) (UniProt Q8NEB9); conditions: Compound concentration 1000.0 nM
# [5] = biological target: Receptor tyrosine-protein kinase erbB-2 (Homo sapiens) (UniProt P04626); conditions: Compound concentration 1000.0 nM
# [6] = test system: eIF-2-alpha kinase GCN2 (Homo sapiens), Q9P2K8 [S808G]; conditions: Compound concentration 1000.0 nM
# [7] = biological target: Ephrin type-A receptor 7 (Homo sapiens) (UniProt Q15375); conditions: Compound concentration 1000.0 nM
# [8] = biological target: Serine/threonine-protein kinase RIO1 (Homo sapiens) (UniProt Q9BRS2); conditions: Compound concentration 1000.0 nM
# [9] = test system: Tyrosine-protein kinase ABL1 (Homo sapiens), P00519 [F317I]; conditions: Compound concentration 1000.0 nM
# [10] = biological target: cGMP-dependent protein kinase 2 (Homo sapiens) (UniProt Q13237); conditions: Compound concentration 1000.0 nM
# [11] = biological target: Non-receptor tyrosine-protein kinase TYK2 (Homo sapiens) (UniProt P29597); conditions: Compound concentration 1000.0 nM
# [12] = biological target: Phosphatidylinositol 4-kinase beta (Homo sapiens) (UniProt Q9UBF8); conditions: Compound concentration 1000.0 nM
# [13] = biological target: Serine/threonine-protein kinase Nek9 (Homo sapiens) (UniProt Q8TD19); conditions: Compound concentration 1000.0 nM
# [14] = biological target: Serine/threonine-protein kinase tousled-like 2 (Homo sapiens) (UniProt Q86UE8); conditions: Compound concentration 1000.0 nM
# [15] = biological target: Sodium-dependent serotonin transporter (Homo sapiens, UniProt P31645); conditions: Compound concentration 10.0 uM
# [16] = biological target: Bone morphogenetic protein receptor type-2 (Homo sapiens) (UniProt Q13873); conditions: Compound concentration 1000.0 nM
# [17] = biological target: Mitogen-activated protein kinase 15 (Homo sapiens) (UniProt Q8TD08); conditions: Compound concentration 1000.0 nM
# [18] = biological target: Inhibitor of nuclear factor kappa-B kinase subunit beta (Homo sapiens) (UniProt O14920); conditions: Compound concentration 1000.0 nM
# [19] = biological target: Receptor tyrosine-protein kinase erbB-4 (Homo sapiens) (UniProt Q15303); conditions: Compound concentration 1000.0 nM
# [20] = test system: Epidermal growth factor receptor (Homo sapiens), P00533 [UNDEFINED MUTATION]; conditions: Compound concentration 1000.0 nM
# [21] = biological target: Serine/threonine-protein kinase MARK2 (Homo sapiens) (UniProt Q7KZI7); conditions: Compound concentration 1000.0 nM
# [22] = biological target: Cyclin-dependent kinase 14 (Homo sapiens) (UniProt O94921); conditions: Compound concentration 1000.0 nM
# [23] = test system: Mast/stem cell growth factor receptor Kit (Homo sapiens), P10721 [D816V]; conditions: Compound concentration 1000.0 nM
# [24] = test system: Tyrosine-protein kinase ABL1 (Homo sapiens), P00519 [F317I]; conditions: Compound concentration 1000.0 nM; remark: listed apart in the source
# [25] = biological target: Calcium/calmodulin-dependent protein kinase type II subunit beta (Homo sapiens) (UniProt Q13554); conditions: Compound concentration 1000.0 nM
# [26] = biological target: Calcium-dependent protein kinase 1 (Plasmodium falciparum) (UniProt P62344); conditions: Compound concentration 1000.0 nM
# [27] = biological target: T1, D(4) dopamine receptor (Homo sapiens) (UniProt P21917); conditions: Compound concentration 10.0 uM
# T1 sequence (whole entry): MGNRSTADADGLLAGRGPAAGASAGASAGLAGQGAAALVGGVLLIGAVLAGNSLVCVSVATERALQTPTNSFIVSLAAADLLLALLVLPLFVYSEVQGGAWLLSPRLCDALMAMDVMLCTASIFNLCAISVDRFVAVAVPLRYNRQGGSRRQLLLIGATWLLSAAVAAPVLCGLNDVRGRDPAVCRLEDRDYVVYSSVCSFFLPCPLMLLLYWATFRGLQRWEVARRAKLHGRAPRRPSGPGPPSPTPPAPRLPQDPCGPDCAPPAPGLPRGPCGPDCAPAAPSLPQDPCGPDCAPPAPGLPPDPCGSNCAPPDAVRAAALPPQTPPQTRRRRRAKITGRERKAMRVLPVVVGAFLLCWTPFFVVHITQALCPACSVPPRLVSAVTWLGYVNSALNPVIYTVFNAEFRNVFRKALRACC
# [28] = biological target: Serine/threonine-protein kinase LATS1 (Homo sapiens) (UniProt O95835); conditions: Compound concentration 1000.0 nM
# [29] = biological target: Interleukin-1 receptor-associated kinase 3 (Homo sapiens) (UniProt Q9Y616); conditions: Compound concentration 1000.0 nM
# [30] = biological target: Dual specificity mitogen-activated protein kinase kinase 4 (Homo sapiens) (UniProt P45985); conditions: Compound concentration 1000.0 nM
# [31] = biological target: Serine/threonine-protein kinase Nek6 (Homo sapiens) (UniProt Q9HC98); conditions: Compound concentration 1000.0 nM
# [32] = test system: Hepatocyte growth factor receptor (Homo sapiens), P08581 [Y1235D]; conditions: Compound concentration 1000.0 nM
# [33] = biological target: Muscle, skeletal receptor tyrosine-protein kinase (Homo sapiens) (UniProt O15146); conditions: Compound concentration 1000.0 nM
# [34] = biological target: Muscarinic acetylcholine receptor M4 (Homo sapiens) (UniProt P08173); conditions: Compound concentration 10.0 uM
# [35] = biological target: Serine/threonine-protein kinase WNK4 (Homo sapiens) (UniProt Q96J92); conditions: Compound concentration 1000.0 nM
# [36] = biological target: Serine/threonine-protein kinase mTOR (Homo sapiens) (UniProt P42345); conditions: Compound concentration 1000.0 nM
# [37] = biological target: Proto-oncogene tyrosine-protein kinase ROS (Homo sapiens) (UniProt P08922); conditions: Compound concentration 1000.0 nM
# [38] = biological target: Aurora kinase C (Homo sapiens) (UniProt Q9UQB9); conditions: Compound concentration 1000.0 nM
# Sequence of Aurora kinase C (Homo sapiens) (Q9UQB9 whole entry): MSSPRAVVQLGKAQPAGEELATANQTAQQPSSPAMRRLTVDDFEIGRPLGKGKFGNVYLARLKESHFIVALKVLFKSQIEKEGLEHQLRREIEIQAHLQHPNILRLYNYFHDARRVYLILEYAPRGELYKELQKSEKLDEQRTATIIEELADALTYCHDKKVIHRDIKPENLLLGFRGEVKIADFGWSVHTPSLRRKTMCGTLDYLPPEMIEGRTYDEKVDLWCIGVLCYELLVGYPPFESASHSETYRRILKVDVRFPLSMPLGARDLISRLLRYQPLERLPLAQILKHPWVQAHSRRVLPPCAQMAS
# Sequence of Tyrosine-protein kinase ABL1 (Homo sapiens), P00519 [F317I] (P00519 whole entry F317I): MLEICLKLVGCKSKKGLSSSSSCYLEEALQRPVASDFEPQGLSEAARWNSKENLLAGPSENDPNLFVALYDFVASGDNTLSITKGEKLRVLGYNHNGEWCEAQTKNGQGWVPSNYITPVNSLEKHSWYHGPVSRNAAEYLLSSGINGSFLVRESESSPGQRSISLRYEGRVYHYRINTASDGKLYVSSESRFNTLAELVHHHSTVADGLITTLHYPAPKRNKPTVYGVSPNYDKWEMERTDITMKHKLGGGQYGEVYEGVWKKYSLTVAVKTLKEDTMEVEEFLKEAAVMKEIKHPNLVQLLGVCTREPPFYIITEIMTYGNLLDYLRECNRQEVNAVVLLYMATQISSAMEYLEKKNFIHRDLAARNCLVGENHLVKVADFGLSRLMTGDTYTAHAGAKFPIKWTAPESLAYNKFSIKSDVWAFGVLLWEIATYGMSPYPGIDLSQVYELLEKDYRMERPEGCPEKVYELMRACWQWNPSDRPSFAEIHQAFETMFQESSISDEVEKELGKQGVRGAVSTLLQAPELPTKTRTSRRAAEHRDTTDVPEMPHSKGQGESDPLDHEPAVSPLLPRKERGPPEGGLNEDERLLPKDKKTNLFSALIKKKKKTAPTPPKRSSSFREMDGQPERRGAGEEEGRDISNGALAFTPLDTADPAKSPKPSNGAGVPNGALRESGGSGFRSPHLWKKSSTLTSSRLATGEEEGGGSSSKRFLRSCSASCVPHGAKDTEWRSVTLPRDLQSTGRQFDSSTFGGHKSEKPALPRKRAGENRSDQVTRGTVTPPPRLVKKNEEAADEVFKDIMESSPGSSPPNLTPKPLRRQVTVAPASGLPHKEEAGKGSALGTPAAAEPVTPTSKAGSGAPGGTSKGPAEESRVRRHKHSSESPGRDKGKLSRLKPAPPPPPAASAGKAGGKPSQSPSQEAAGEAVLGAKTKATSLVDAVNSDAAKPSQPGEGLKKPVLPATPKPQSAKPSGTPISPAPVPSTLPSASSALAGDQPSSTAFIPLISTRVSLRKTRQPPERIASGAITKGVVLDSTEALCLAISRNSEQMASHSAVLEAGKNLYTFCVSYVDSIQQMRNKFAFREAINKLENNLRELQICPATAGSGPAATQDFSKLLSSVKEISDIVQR
# Sequence of Serine/threonine-protein kinase RIO1 (Homo sapiens) (Q9BRS2 whole entry): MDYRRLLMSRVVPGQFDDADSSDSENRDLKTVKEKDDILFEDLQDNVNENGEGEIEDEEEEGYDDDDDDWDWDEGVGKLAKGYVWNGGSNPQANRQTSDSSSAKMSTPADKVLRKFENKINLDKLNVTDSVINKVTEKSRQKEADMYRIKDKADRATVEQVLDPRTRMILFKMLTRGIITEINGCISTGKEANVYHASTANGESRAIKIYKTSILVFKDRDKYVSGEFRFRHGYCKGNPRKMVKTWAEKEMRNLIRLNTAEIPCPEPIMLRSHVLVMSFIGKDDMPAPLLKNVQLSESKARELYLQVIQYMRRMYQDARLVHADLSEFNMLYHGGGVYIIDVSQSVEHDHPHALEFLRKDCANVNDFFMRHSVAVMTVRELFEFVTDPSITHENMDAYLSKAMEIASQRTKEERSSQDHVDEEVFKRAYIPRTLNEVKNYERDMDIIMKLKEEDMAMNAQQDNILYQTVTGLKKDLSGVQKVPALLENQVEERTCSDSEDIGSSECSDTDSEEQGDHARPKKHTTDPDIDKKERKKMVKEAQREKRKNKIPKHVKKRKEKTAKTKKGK
# Sequence of Cyclin-dependent kinase 14 (Homo sapiens) (O94921 whole entry): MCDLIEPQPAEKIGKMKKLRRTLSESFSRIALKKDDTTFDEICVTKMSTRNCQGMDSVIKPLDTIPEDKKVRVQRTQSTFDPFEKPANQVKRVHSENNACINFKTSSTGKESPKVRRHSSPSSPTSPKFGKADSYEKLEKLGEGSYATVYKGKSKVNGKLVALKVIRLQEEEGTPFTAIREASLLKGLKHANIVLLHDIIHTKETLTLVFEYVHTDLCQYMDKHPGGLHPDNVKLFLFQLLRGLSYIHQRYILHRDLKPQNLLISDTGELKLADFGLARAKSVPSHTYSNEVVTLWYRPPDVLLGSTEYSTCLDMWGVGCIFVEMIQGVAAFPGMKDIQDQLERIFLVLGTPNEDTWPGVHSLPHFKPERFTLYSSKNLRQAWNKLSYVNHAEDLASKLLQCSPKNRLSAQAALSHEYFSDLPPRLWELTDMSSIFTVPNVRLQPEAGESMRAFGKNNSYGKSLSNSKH
# Sequence of Serine/threonine-protein kinase LATS1 (Homo sapiens) (O95835 whole entry): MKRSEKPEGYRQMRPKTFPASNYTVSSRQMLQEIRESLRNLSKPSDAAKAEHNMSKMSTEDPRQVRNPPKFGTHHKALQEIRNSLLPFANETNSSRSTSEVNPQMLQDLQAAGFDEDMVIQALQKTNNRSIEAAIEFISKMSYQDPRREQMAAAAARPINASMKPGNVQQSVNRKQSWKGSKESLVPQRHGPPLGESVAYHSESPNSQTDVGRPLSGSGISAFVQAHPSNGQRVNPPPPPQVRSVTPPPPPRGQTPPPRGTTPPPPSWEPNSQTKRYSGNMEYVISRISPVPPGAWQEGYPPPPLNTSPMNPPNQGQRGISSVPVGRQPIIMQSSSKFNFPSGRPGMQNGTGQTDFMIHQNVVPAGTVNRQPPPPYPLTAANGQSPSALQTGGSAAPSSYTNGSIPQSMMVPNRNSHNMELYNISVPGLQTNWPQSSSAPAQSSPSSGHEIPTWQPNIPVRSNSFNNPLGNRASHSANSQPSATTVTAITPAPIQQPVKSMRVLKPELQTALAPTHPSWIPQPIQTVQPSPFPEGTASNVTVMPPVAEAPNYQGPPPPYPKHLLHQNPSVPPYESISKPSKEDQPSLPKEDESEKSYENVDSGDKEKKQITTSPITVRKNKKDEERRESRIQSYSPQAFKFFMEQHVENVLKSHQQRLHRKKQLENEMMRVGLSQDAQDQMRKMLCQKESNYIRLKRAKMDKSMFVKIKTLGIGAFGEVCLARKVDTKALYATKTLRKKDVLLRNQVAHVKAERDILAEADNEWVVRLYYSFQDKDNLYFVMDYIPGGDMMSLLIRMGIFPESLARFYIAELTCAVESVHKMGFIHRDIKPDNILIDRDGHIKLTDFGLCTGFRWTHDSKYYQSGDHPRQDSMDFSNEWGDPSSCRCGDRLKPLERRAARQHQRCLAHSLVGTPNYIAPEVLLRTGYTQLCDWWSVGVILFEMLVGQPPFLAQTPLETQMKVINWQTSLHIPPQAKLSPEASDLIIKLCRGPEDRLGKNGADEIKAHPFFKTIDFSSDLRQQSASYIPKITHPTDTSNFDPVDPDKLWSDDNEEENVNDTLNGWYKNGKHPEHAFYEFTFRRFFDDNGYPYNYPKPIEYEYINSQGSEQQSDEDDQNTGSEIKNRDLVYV
# Sequence of Mitogen-activated protein kinase 15 (Homo sapiens) (Q8TD08 whole entry): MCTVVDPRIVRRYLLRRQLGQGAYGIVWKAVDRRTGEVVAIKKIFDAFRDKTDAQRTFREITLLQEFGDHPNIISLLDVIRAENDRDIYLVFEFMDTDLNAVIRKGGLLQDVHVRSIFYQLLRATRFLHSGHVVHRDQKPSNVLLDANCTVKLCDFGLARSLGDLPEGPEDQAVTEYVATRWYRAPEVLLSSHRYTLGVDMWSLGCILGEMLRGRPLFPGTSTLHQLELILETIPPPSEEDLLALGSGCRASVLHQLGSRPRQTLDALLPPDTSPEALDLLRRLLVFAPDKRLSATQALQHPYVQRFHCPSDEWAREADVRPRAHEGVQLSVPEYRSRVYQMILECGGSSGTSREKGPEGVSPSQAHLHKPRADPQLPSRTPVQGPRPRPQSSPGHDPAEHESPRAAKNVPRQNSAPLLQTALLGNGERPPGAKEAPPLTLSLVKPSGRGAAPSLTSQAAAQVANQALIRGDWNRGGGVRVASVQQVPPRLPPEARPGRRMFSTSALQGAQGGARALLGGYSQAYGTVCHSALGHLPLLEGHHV
# Sequence of Phosphatidylinositol 3-kinase catalytic subunit type 3 (Homo sapiens) (Q8NEB9 whole entry): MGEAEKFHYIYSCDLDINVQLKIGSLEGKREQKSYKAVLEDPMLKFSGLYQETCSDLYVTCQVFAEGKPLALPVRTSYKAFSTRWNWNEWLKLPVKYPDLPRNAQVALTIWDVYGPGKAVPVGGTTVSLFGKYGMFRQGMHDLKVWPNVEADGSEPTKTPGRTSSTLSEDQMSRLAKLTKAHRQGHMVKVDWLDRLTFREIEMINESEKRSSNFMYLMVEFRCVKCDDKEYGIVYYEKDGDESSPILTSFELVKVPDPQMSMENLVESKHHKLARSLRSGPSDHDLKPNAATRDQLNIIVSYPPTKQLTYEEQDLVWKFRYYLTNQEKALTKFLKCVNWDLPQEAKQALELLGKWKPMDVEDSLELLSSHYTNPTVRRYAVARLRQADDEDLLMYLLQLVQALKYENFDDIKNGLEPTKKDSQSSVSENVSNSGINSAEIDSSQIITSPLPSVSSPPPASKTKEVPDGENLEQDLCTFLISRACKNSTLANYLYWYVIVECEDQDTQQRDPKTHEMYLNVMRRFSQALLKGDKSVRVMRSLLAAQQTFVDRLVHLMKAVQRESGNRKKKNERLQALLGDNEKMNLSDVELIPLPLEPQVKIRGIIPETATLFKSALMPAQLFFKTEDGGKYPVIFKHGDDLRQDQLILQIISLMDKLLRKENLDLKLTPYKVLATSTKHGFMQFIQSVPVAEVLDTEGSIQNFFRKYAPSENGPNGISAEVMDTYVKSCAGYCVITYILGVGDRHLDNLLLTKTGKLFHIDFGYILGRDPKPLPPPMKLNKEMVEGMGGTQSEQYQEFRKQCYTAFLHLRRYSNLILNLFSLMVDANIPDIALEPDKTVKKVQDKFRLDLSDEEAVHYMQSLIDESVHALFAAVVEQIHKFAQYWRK
SMILES,residual activity [1] [%],inhibition [2] [%],residual activity [3] [%],inhibition (D(1A) dopamine receptor) [%],residual activity [4] [%],residual activity [5] [%],residual activity [6] [%],residual activity [7] [%],residual activity [8] [%],residual activity [9] [%],residual activity [10] [%],residual activity [11] [%],residual activity [12] [%],residual activity [13] [%],residual activity [14] [%],inhibition [15] [%],residual activity [16] [%],residual activity [17] [%],residual activity [18] [%],residual activity [19] [%],other results
Cc1c(C(=O)O)cc(-c2ccc(C3CCNCC3)cc2)c2ccc(-c3ccc(C(F)(F)F)cc3)cc12 [PPTN-NC],98,7.22,100,61.4,100,100,100,100,100,100,71,100,100,100,100,-7.91,100,100,100,100,residual activity [20]: 100%; residual activity [21]: 100%; residual activity [22]: 100%; residual activity [23]: 100%; residual activity [24]: 100%; residual activity [25]: 100%; residual activity [26]: 100%; inhibition [27]: 8.42%; residual activity [28]: 86%; residual activity [29]: 100%; residual activity [30]: 100%; residual activity [31]: 100%; residual activity [32]: 100%; residual activity [33]: 100%; inhibition [34]: -5.54%; residual activity [35]: 100%; residual activity [36]: 96%; residual activity [37]: 100%; residual activity [38]: 92%
O=C(O)c1cc(-c2ccc(C3CCNCC3)cc2)c2ccc(-c3ccc(C(F)(F)F)cc3)cc2c1 [PPTN],100,4.16,100,71.4,100,100,100,100,100,100,79,100,100,100,100,-2.04,100,100,100,100,residual activity [20]: 100%; residual activity [21]: 100%; residual activity [22]: 100%; residual activity [23]: 100%; residual activity [24]: 100%; residual activity [25]: 100%; residual activity [26]: 100%; inhibition [27]: 10.4%; residual activity [28]: 88%; residual activity [29]: 100%; residual activity [30]: 100%; residual activity [31]: 100%; residual activity [32]: 100%; residual activity [33]: 90%; inhibition [34]: -4.96%; residual activity [35]: 100%; residual activity [36]: 90%; residual activity [37]: 100%; residual activity [38]: 95%

# From ChEMBL document CHEMBL4507292 (2021)
